Assay results taken from PubChem BioAssay (NCI).
Several values for one entry are separate records, joined by “and”; a condition that tells them apart may be missing. Equal values may be shown once.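 Dose response: 5 concentrations. Exposure: 48 h. Format: 96-well plates. Endpoint: linear interpolation; highest concentration if not reached. GI50 = concentration required for 50% inhibition of growth. TGI denotes the concentration required for complete inhibition of growth.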

Legend:
Test in all cases: inhibition of tumour cell growth, NCI panel, 48 h
[1] = tested on: A549 NSCLC
[2] = tested on: DU-145 prostate
[3] = tested on: MALME-3M melanoma
[4] = tested on: MCF7 breast
[5] = tested on: MDA-MB-231 breast
[6] = tested on: NCI-H460 lung
[7] = tested on: NCI/ADR-RES ovarian
[8] = tested on: PC-3 prostate
[9] = tested on: SNB-75 CNS
[10] = tested on: TK-10 renal

| SMILES | GI50 [1] | TGI [1] | GI50 [2] | TGI [2] | GI50 [3] | TGI [3] | GI50 [4] | TGI [4] | GI50 [5] | TGI [5] | GI50 [6] | TGI [6] | GI50 [7] | TGI [7] | GI50 [8] | TGI [8] | GI50 [9] | TGI [9] | GI50 [10] | TGI [10] |
| --- | --- | --- | --- | --- | --- | --- | --- | --- | --- | --- | --- | --- | --- | --- | --- | --- | --- | --- | --- | --- |
| Cc1ccc2c(-c3ccnc(Nc4cccc(C(F)(F)F)c4)n3)c(-c3ccccc3)nn2n1 | 6.18 µM | > 25 µM | 12.3 µM | 24.4 µM | > 16.4 µM | > 22.8 µM | 2.85 µM | > 25 µM | 3.34 µM | 8.64 µM | 6.42 µM | > 16.4 µM | 8.47 µM | > 25 µM | > 13 µM | > 25 µM | 3.87 µM | > 25 µM | 3.57 µM | 11.4 µM |
| CC[C@@]1(O)C(=O)OCc2c1cc1n(c2=O)Cc2cc3cc(O)ccc3nc2-1 | 0.0813 µM | 3.93 µM and 2.32 µM | – | 0.0786 µM | 0.0567 µM | 1.45 µM and 0.877 µM | – | – | – | > 100 µM | 0.0172 µM and < 0.0104 µM | 0.112 µM and 1.07 µM | – | 0.225 µM and 0.109 µM | – | > 100 µM | – | 0.206 µM and 0.107 µM | – | 44.9 µM |
| COC(=O)NC1=Nc2ccccc2C(=O)NN1 | – | > 100 µM | – | > 100 µM | – | > 100 µM | – | > 100 µM | – | > 100 µM | – | > 100 µM | – | > 100 µM | – | > 100 µM | – | > 100 µM | – | > 100 µM |
| C=CCc1cc(O)ccc1O | > 100 µM | > 100 µM | 85 µM | > 100 µM | 23.6 µM | > 100 µM | 44.3 µM | > 100 µM | 14.1 µM | > 100 µM | 46.8 µM | > 100 µM | 22.7 µM | > 100 µM | 12.5 µM | > 100 µM | 5.74 µM | > 100 µM | 24.9 µM | 69.2 µM |
| C=C(CC)C(=O)c1ccc(OCC(=O)O)c(Cl)c1Cl | – | > 100 µM | – | > 73.2 µM | – | 31.7 µM | – | 20.8 µM | – | 34.6 µM | – | > 69.9 µM | – | > 61.9 µM | – | > 81.8 µM | – | 50 µM | – | 30.2 µM |
| Nc1nc(N)c2c(Cl)c(CNc3ccc(Cl)c(Cl)c3)ccc2n1 | – | 14.5 µM | – | 15.7 µM | – | 12.8 µM | – | – | – | 7.26 µM | – | 11.4 µM | – | 18.7 µM | – | 12.7 µM | – | 18.4 µM | – | 12.4 µM |
| CCc1nc(N)nc(N)c1-c1ccc(N2CCNCC2)c([N+](=O)[O-])c1 | – | > 100 µM | – | > 100 µM | – | 37.3 µM | – | > 79.1 µM | – | 69.2 µM | – | > 100 µM | – | > 100 µM | – | > 100 µM | – | > 95.8 µM | – | > 100 µM |
| Nc1nc2c(ncn2C2OC(CO)C(O)C2O)c(=O)o1 (stereo unspecified) | – | > 100 µM | – | > 100 µM | – | > 100 µM | – | – | – | – | – | > 100 µM | – | – | – | > 100 µM | – | > 100 µM | – | > 100 µM |
| COc1cc2c3c(n(CCCNCCCCN)c(=O)c2cc1OC)-c1cc2c(cc1C3=O)OCO2 | 5.48 µM | 25 µM | 0.0764 µM | 5.16 µM | 1.66 µM | 7.32 µM | 0.0829 µM | 22.5 µM | 2.86 µM | 9.13 µM | < 0.041 µM | 7.38 µM | 17.3 µM | > 90.8 µM | 4.51 µM | 26 µM | 10.7 µM | 32.2 µM | 0.773 µM | 10.1 µM |
| Cn1ccc(S(=O)(=O)N2CCC[C@H](Nc3nccc(-c4c(-c5cccc(O)c5)nc5occn45)n3)C2)n1 | 13.2 µM | 42.9 µM | 16.6 µM | > 100 µM | – | – | 12.8 µM | 55.3 µM | 6.23 µM | > 66.6 µM | 15.5 µM | 59.8 µM | > 78.7 µM | > 100 µM | 19.4 µM | > 100 µM | 1.9 µM | > 89 µM | 14.3 µM | 60.2 µM |
| CCN(CC)CCN1C(=O)c2c(c3c4cccc(Cl)c4n(C4OC(CO)C(OC)C(O)C4O)c3c3[nH]c4c(Cl)cccc4c23)C1=O (stereo unspecified) | < 0.0001 µM | – | – | 0.0845 µM | – | – | – | 0.199 µM | – | 1.12 µM | < 0.0001 µM | – | – | – | – | – | – | – | – | – |
| N=C1C(c2nc3ccccc3c(=O)[nH]2)=C(O)CN1c1cccc(Cl)c1 | 5.36 µM | > 100 µM | 5.12 µM | > 57.9 µM | 1.03 µM | 10.7 µM | 4.19 µM | > 100 µM | > 100 µM | > 100 µM | 3.72 µM | > 85.6 µM | 3.16 µM | > 100 µM | 2.69 µM | > 29.5 µM | 3.83 µM | > 100 µM | 6.68 µM | > 50.6 µM |
| CCN1C[C@@H](C)n2c(c(O)c3c(=O)n(Cc4ccc(F)c(Cl)c4)nc(C(=O)NC)c32)C1=O | 3.14 µM | > 100 µM | 3.57 µM | 13.8 µM | 2.75 µM | 8.07 µM | 3.26 µM | 65.7 µM | 2.64 µM | 7.36 µM | 3.15 µM | 10.7 µM | 1.62 µM | 7.79 µM | 3.27 µM | 32 µM | 2.28 µM | 7.12 µM | 2.95 µM | 12.6 µM |
| COc1cc(C(=O)/C=C/c2cccnc2Nc2ccc(Cl)cc2)cc(OC)c1OC | 1.63 µM | 3.6 µM | 1.63 µM | 2.98 µM | 1.91 µM | 3.65 µM | 1.02 µM | 2.35 µM | 1.49 µM | 3.12 µM | 1.92 µM | 3.88 µM | 1.64 µM | 4.4 µM | 1.44 µM | 3.33 µM | 1.63 µM | 3 µM | 1.87 µM | 3.35 µM |
| CCN(CC)Cc1cc(Nc2ccnc3ccc(OC)cc23)ccc1O | 4.37 µM | 18.1 µM | 3.93 µM | 16.8 µM | 3.85 µM | 15.7 µM | 2.71 µM | 9.62 µM | 4.76 µM | 31.2 µM | 3.28 µM | 10.4 µM | 4.87 µM | 28.8 µM | 4.49 µM | 31.6 µM | 4.88 µM | 18.8 µM | 3.1 µM | 8.43 µM |
